Source: PMC10760875, “Synthesis of alnustone-like diarylpentanoids via a 4 + 1 strategy and assessment of their potential anticancer activity” (Turkish Journal of Chemistry, 2023)
Read-outs that look alike come from different tables or passages of the source. Blank lines part the entries; values can stand above or below the compound they belong to.

Columns and labels:
[1] = test system: U87-MG cells (human glioblastoma); assay: MTT cytotoxicity assay, U87-MG; assay type: cell-based; conditions: for IC50: Homo sapiens, U-87 MG, MTT, 48 h, read-out: IC50 against U87-MG; for SI, U87-MG cells: SI = IC50 normal cells (HPAEpiC)/IC50 U87-MG
Experimental: (§1) GBM (U87-MG), breast cancer (MCF-7), prostate carcinoma (PC-3), and lung epithelium (HPAEpiC) cell lines were used to assess the cytotoxic action potential of compounds 5a–5l. The cells were grown in a single layer in flasks in appropriate medium containing 10% fetal bovine serum (FBS), 1% penicillin/streptomycin, and 1% L-glutamine at 37 °C and 5% CO2 to maintain the pH balance. Cells that had reached 70%–80% confluence were used in the experiments.
(§2) The 3-(4,5-dimethylthiazol-2-yl)-2,5-diphenyltetrazolium bromide (MTT) method is a widely used colorimetric method for the quantitative determination of cell viability. It is based on the reduction of the tetrazolium ring of the yellow dye MTT by living cells. As a result of the reduction, the tetrazolium ring breaks down to form a dark blue-violet formazan compound. Cell viability is then determined spectrophotometrically. The viability of untreated cells is assumed to be 100% and the viability of treated cells is determined as a percentage (%) according to those cells.
(§3) To each 96-well plate, 2 × 10^4 cells were seeded and treated with 6 different concentrations (3.125, 6.25, 12.5, 25, 50, and 100 mg/L) of the 12 tested compounds, and then the plates were incubated in a CO2 oven at 37 °C for 48 h. At the end of the incubation, 10 μL of the MTT mixture was added to each well using a pipette, which was then gently mixed for 1 min on a circular mixer. The cells were incubated in a CO2 oven at 37 °C for 3–4 h. The formazan that formed as a result of the incubation was seen as dark crystals at the bottoms of the wells. The culture medium was carefully aspirated from each well without dispersing the cell layer, and then 100 μL of dimethyl sulfoxide (DMSO) was added to each well and gently stirred on an orbital stirrer to dissolve the formazan crystals. Each sample was read at a wavelength of 570 nm in a spectrophotometer and absorbance values were obtained. A wavelength of 630 nm was used as the reference wavelength.
(§4) Percent viability and cytotoxicity values for each dose administered were calculated according to the following formulas:
(§5) • % Viability = (absorbance of the sample/absorbance of the control) × 100 • % Cytotoxicity = [1 – (absorbance of the sample/absorbance of the control)] × 100
(§6) The IC50 dose, as the concentration of inhibitor that caused a 50% decrease in cell viability, was calculated using Excel regression analysis.
(§7) Human GBM (U87-MG), breast cancer (MCF-7), prostate cancer (PC-3), and pulmonary alveolar epithelial cells (HPAEpiC) cell lines from the American Type Culture Collection (ATCC) were used for the cytotoxicity testing of compounds 5a–5l. The cells were grown as a single layer in appropriate medium containing 10% FBS, 1% penicillin/streptomycin, and 1% L-glutamine at 37 °C and 5% CO2 atmosphere.
(§8) The cytotoxicity analyses of all of the compounds were investigated by determining cell viability based on the colorimetric MTT assay, which was conducted according to the manufacturer’s guide. First, […] were seeded in a 96-well plate and then incubated at 37 °C in a 5% CO2 environment for 24 h. The medium was aspirated the following day, and […] of each concentration of the 12 tested compounds (3.125, 6.25, 12.5, 25, 50, and 100 mg/L) were separately added to each well. The plates were then incubated for 48 h at 37 °C with 5% CO2. Next, 10 μL of MTT solution was added to each well and the plate was incubated for 4 h. The culture medium was aspirated from the wells without dispersing the cell layer and then 100 μL of DMSO was added to each well and stirred on an orbital stirrer to dissolve the formazan crystals. Each sample was read at a wavelength of 570 nm in a spectrophotometer and absorbance values were obtained. A wavelength of 630 nm was used as the reference. Cell viability was expressed as a percentage compared to the untreated cells. All experiments were performed in triplicate.

[2] = test system: MCF-7 cells (breast cancer); assay: MTT cytotoxicity assay, MCF-7; assay type: cell-based, human; conditions: for IC50: MTT, 48 h, read-out: IC50 against MCF-7; for SI, MCF-7 cells: SI = IC50 normal cells (HPAEpiC)/IC50 MCF-7
Experimental: as §1, §2, §3, §4, §5, §6, §7, §8

[3] = test system: PC-3 cells (prostate cancer); assay: MTT cytotoxicity assay, PC-3; assay type: cell-based, human; conditions: for IC50: MTT, 48 h, read-out: IC50 against PC-3; for SI, PC-3 cells: SI = IC50 normal cells (HPAEpiC)/IC50 PC-3
Experimental: as §1, §2, §3, §4, §5, §6, §7, §8

[4] = test system: HPAEpiC cells (pulmonary alveolar epithelial cells); assay: MTT cytotoxicity assay, healthy HPAEpiC; assay type: cell-based; conditions: Homo sapiens, Epithelial cell, 48 h, read-out: IC50 against HPAEpiC (healthy cells)
Experimental: as §1, §2, §3, §4, §5, §6, §7, §8

MCF-7 cells = assay: Hoechst 33258 nuclear staining, MCF-7; assay type: cell-based, human; conditions: IC50 concentration, 48 h
Experimental: (§9) Cell morphological characteristics were examined via the fluorescent Hoechst 33258 staining approach. […] The nuclei in the untreated group were stained a less brilliant blue and the color was uniform. After 48 h of treatment at the IC50 concentrations of compounds 5a and 5i, the blue emission light in the apoptotic cells was considerably brighter than in the control cells. Many compound-treated cells also had condensed chromatin, and some had the shape of apoptotic bodies, which is one of the basic features of apoptotic cells (Figures 5 and 6). In line with these findings, it was previously reported that the diarylpentanoid BP-M345 exerted potential as an anticancer drug, showing its antiproliferative activity by preventing mitosis through microtubule disruption and inducing cancer cell death. Likewise, diarylpentanoid derivatives have led to intrinsic apoptosis in cancer cells by upregulating proapoptotic proteins such as Bad and Bax and downregulating prosurvival proteins such as Bcl-2 and Bcl-xL [33]. […]
(§10) Hoechst 33258 staining was used to assess significant morphological changes in the nuclear chromatin of the cells. […] Thereafter, the cells were observed using a Leica DMIRB fluorescence microscope (Leica Microsystems, Wetzlar, Germany). […]

U87-MG cells = assay: Hoechst 33258 nuclear staining, U87-MG; assay type: cell-based, human; conditions: IC50 concentration, 48 h
Experimental: as §9, §10

melting point: 202 to 203 °C
Compound: O=C(/C=C/c1ccc(O)c(O)c1)CCc1ccc(O)cc1 [Compound 5l, (E)-1-(3,4-dihydroxyphenyl)-5-(4-hydroxyphenyl)pent-1-en-3-one]
IC50 [1]: 287 µM
SI, U87-MG cells [1]: 1.38
IC50 ([2]; Homo sapiens, MCF7, 48 h): 317 µM
SI, MCF-7 cells [2]: 1.25
IC50 ([3]; Homo sapiens, PC-3, 48 h): 185 µM
SI, PC-3 cells [3]: 2.14
IC50 [4]: 396 µM

melting point: 89 to 90 °C
Compound: COc1cc(/C=C/C(=O)CCc2ccccc2)ccc1O [Compound 5d, (E)-1-(4-hydroxy-3-methoxyphenyl)-5-phenylpent-1-en-3-one]
IC50 [1]: 31.9 µM
SI, U87-MG cells [1]: 0.45
IC50 ([2]; Homo sapiens, MCF7, 48 h): < 30 µM
IC50 [2]: 27.8 µM
SI, MCF-7 cells [2]: 0.52
IC50 ([3]; Homo sapiens, PC-3, 48 h): < 30 µM
IC50 [3]: 20.9 µM
SI, PC-3 cells [3]: 0.69
IC50 [4]: 14.4 µM

melting point: 136 to 137 °C
Compound: O=C(/C=C/c1ccc(O)cc1)CCc1ccccc1 [Compound 5b, (E)-1-(4-hydroxyphenyl)-5-phenylpent-1-en-3-one]
IC50 [1]: 70.9 µM
SI, U87-MG cells [1]: 0.08
SI, MCF-7 cells [2]: 0.58
IC50 ([3]; Homo sapiens, PC-3, 48 h): < 30 µM
IC50 [3]: 22 µM
SI, PC-3 cells [3]: 0.25
IC50 [4]: 5.51 µM

melting point: 131 to 132 °C
Compound: COc1cc(/C=C/C(=O)CCc2ccc(O)cc2)ccc1O [Compound 5j, (E)-1-(4-hydroxy-3-methoxyphenyl)-5-(4-hydroxyphenyl)pent-1-en-3-one]
IC50 [1]: 75.7 µM
SI, U87-MG cells [1]: 1.23
IC50 ([2]; Homo sapiens, MCF7, 48 h): 35 µM
SI, MCF-7 cells [2]: 2.67
IC50 ([3]; Homo sapiens, PC-3, 48 h): 32.2 µM
SI, PC-3 cells [3]: 2.90
IC50 [4]: 93.4 µM

melting point: 95 to 96 °C
Compound: COc1ccc(/C=C/C(=O)CCc2ccccc2)cc1 [Compound 5c, (E)-1-(4-methoxyphenyl)-5-phenylpent-1-en-3-one]
IC50 [1]: 213 µM
SI, U87-MG cells [1]: 0.42
IC50 ([2]; Homo sapiens, MCF7, 48 h): 50.2 µM
SI, MCF-7 cells [2]: 1.84
IC50 ([3]; Homo sapiens, PC-3, 48 h): 439 µM
SI, PC-3 cells [3]: 0.21
IC50 [4]: 92.3 µM

melting point: 94 to 95 °C
Compound: COc1ccc(/C=C/C(=O)CCc2ccccc2)cc1O [Compound 5e, (E)-1-(3-hydroxy-4-methoxyphenyl)-5-phenylpent-1-en-3-one]
IC50 [1]: 133 µM
SI, U87-MG cells [1]: 0.20
IC50 ([2]; Homo sapiens, MCF7, 48 h): < 30 µM
IC50 [2]: 21.8 µM
SI, MCF-7 cells [2]: 1.21
IC50 ([3]; Homo sapiens, PC-3, 48 h): 95.8 µM
SI, PC-3 cells [3]: 0.28
IC50 [4]: 26.4 µM

melting point: 96 to 97 °C
Compound: O=C(/C=C/c1ccccc1)CCc1ccc(O)cc1 [Compound 5g, (E)-5-(4-hydroxyphenyl)-1-phenylpent-1-en-3-one]
IC50 [1]: 128 µM
SI, U87-MG cells [1]: 0.17
IC50 ([2]; Homo sapiens, MCF7, 48 h): < 30 µM
IC50 [2]: 16.2 µM
SI, MCF-7 cells [2]: 1.31
IC50 ([3]; Homo sapiens, PC-3, 48 h): 291 µM
SI, PC-3 cells [3]: 0.07
IC50 [4]: 21.1 µM

melting point: 130 to 131 °C
Compound: COc1ccc(/C=C/C(=O)CCc2ccc(O)cc2)cc1O [Compound 5k, (E)-1-(3-hydroxy-4-methoxyphenyl)-5-(4-hydroxyphenyl)pent-1-en-3-one]
IC50 [1]: 52.6 µM
SI, U87-MG cells [1]: 1.32
IC50 ([2]; Homo sapiens, MCF7, 48 h): 203 µM
SI, MCF-7 cells [2]: 0.34
IC50 ([3]; Homo sapiens, PC-3, 48 h): 45.1 µM
SI, PC-3 cells [3]: 1.54
IC50 [4]: 69.3 µM

Continued, compound first:

Compound: O=C(/C=C/c1ccccc1)CCc1ccccc1 [Compound 5a, (E)-1,5-diphenylpent-1-en-3-one]
IC50 [1]: 107 µM
SI, U87-MG cells [1]: 0.79
SI, MCF-7 cells [2]: 7.45
IC50 ([3]; Homo sapiens, PC-3, 48 h): 50.1 µM
SI, PC-3 cells [3]: 1.69
IC50 [4]: 84.8 µM
Nuclear morphology by Hoechst 33258 staining, MCF-7 (MCF-7 cells): apoptotic cells with fragmented nuclei
Nuclear morphology by Hoechst 33258 staining, U87-MG (U87-MG cells): apoptotic cells with fragmented nuclei

Compound: O=C(/C=C/c1ccc(O)cc1)CCc1ccc(O)cc1 [Compound 5h, (E) 1,5-bis(4-hydroxyphenyl)pent-1-en-3-one]
IC50 [1]: 358 µM
SI, U87-MG cells [1]: 0.14
IC50 ([2]; Homo sapiens, MCF7, 48 h): < 30 µM
IC50 [2]: 26.7 µM
SI, MCF-7 cells [2]: 1.92
IC50 ([3]; Homo sapiens, PC-3, 48 h): 437 µM
SI, PC-3 cells [3]: 0.12
IC50 [4]: 51.4 µM
melting point: 146 to 147 °C

Compound: O=C(/C=C/c1ccc(O)c(O)c1)CCc1ccccc1 [Compound 5f, (E)-1-(3,4-dihydroxyphenyl)-5-phenylpent-1-en-3-one]
IC50 [1]: 33.4 µM
SI, U87-MG cells [1]: 1.29
IC50 ([2]; Homo sapiens, MCF7, 48 h): 544 µM
SI, MCF-7 cells [2]: 0.08
IC50 ([3]; Homo sapiens, PC-3, 48 h): 97.5 µM
SI, PC-3 cells [3]: 0.44
IC50 [4]: 43.1 µM

Compound: COc1cccc2c1C(=O)c1c(O)c3c(c(O)c1C2=O)C[C@@](O)(C(=O)CO)C[C@@H]3O[C@H]1C[C@H](N)[C@H](O)[C@H](C)O1 [DOX control (+), doxorubicin, reference compound]
IC50 [1]: 8.95 µM
SI, U87-MG cells [1]: 7.20
IC50 ([2]; Homo sapiens, MCF7, 48 h): 14.7 µM
SI, MCF-7 cells [2]: 4.38
IC50 ([3]; Homo sapiens, PC-3, 48 h): 6.76 µM
SI, PC-3 cells [3]: 9.53
IC50 [4]: 64.4 µM

Compound: COc1ccc(/C=C/C(=O)CCc2ccc(O)cc2)cc1 [Compound 5i, (E)-5-(4-hydroxyphenyl)-1-(4-methoxyphenyl)pent-1-en-3-one]
IC50 [1]: 233 µM
SI, U87-MG cells [1]: 0.06
SI, MCF-7 cells [2]: 2.52
SI, PC-3 cells [3]: 1.53
IC50 [4]: 14.9 µM
Nuclear morphology by Hoechst 33258 staining, MCF-7 (MCF-7 cells): apoptotic cells with fragmented nuclei
Nuclear morphology by Hoechst 33258 staining, U87-MG (U87-MG cells): apoptotic cells with fragmented nuclei
